Test results reported in US20060046972A1, “Cytotoxic nucleoside analog compound 003 for treating cancer” (Parker Hughes Institute, priority 2004, published 2006).

Columns and labels:
[1] = system: centrosomes isolated from an EBV-transformed B-lymphoblastoid cell line; experiment: Centrosomal regrowth assay of aster formation from isolated centrosomes; type: biochemical; conditions: 100 μM
Protocol: Centrosome isolation from an EBV-transformed B-lymphoblastoid cell line was performed following a slight modification of a literature procedure (See, for example, Moudjou and Bomens, 1994, Cell Biology: A Laboratory Handbook, p. 595. Academic Press, Inc, New York; and Cell Biology: A Laboratory Handbook, 1994).
Briefly, cells were grown to a density of 1×10^6 per ml. A total of 1×10^9 cells were treated for 1 hour with […] and […]. All subsequent procedures were performed at 4° C. Firstly, cells were transferred into sterile conical 50 ml tubes and sedimented at 1,200×g for 5 minutes. Cells were then washed twice with 50 ml of filtered tris buffered saline (10 mM Tris-HCl, pH 7.4, 150 mM NaCl, TBS) by gentle resuspension with a pasteur pipette and sedimented at 1,200×g for 5 minutes. Cells were next washed with 8% sucrose in ten times diluted TBS and sedimented at 1,200×g for 5 minutes. Cells were lysed with 100 ml of 1 mM Hepes lysis buffer (0.5% Nonidet-P40), 0.5mM MgCl2, 0.1% β-Mercaptoethanol, 1 mM PMSF, 100 μg/ml aprotinin, 1 μg/ml leupeptin and 1 μg/ml pepstatin), pH 7.2. The swollen nuclei were sedimented at 1,200×g for 10 minutes and the supernatant was filtered through a 70 μm nylon cell strainer. After the addition of 1M Hepes (10 mM final) and 5 μl of 10 mg/ml DNase (1 μg/ml final), the lysate was incubated for 30 minutes at 4° C. […]

[2] = system: BT20 breast cancer cell line; experiment: Intracellular metabolism of Compound 003 to ala-AZT-MP, BT20; type: in vitro ADME, human; conditions: 25 μM Compound 003
Excerpt: Intracellular metabolism of Compound 003 was studied in CEM T-lineage lymphoma cell line, BT20 breast cancer cell line, T98 glioblastoma cell line, and Nalm-6 B-lineage leukemia cell line. CEM and Nalm6 cells were maintained in RPMI supplemented with 10% fetal bovine serum, and 1% penicillin/streptomycin. BT20 and T98 cells w.ere cultured in a medium composed of MEM, 10% fetal bovine serum, 0.1-mM of nonessential amino acids and Earles salts, and 1% penicillin/streptomycin. CEM and Nalm6 cells at a density of 10^6 cells per ml were utilized in the drug metabolism study. BT20 and T98 cells were seeded in 6-cm petri-dishes at 4 million cells and 2 million cells per plate, respectively, the day before the experiment. Either one plate of adherent cells or 10 million non-adherent cells was utilized at each time point. Cells were incubated with various concentrations of the compounds up to 24 hrs at 37° C. After incubation, cells were washed 2 times with ice-cold PBS, and extracted by addition of 0.5-1 ml of 60% methanol. Cell lysates were kept at −20° C. overnight, after which lysates were centrifuged at 15000×g for 10 minutes to remove the cell debris. One hundred microliters of these lysates were injected directly to HPLC. For half-life study, cells at the same density as in drug metabolism study were treated with 100 μM Compound 003 for 2 hrs, after which cells were washed 2 times with ice-cold PBS, and resuspended in warm media until the time they were harvested. For uptake and efflux study, cells were seeded at 2 million cells in 2 ml of media. […] With efflux experiments, cells 1×10^6/mL (the same density as in the uptake study) were incubated with 100 μM Compound 003 for 1 hr, washed 2 times with ice-cold PBS, and resuspended with culture medium without drug, and the metabolite efflux from cells to the medium was measured after 6 hr of incubation. […]

COC(=O)C(C)NP(=O)(OCC1OC(n2cc(C)c(=O)[nH]c2=O)CC1N=[N+]=[N-])Oc1ccc(OC)cc1 (centres unmarked) [Compound 003, 3′-azidothymidine 5′-[p-methoxyphenylmethoxyalaninyl phosphate]]
nucleation of microtubules and aster growth from isolated centrosomes [1]: inhibited the ability of the centrosomes to nucleate and sufficiently grow microtubule asters | time to peak intracellular metabolite concentration [2]: within an hour
